Activity calls are given as the source filed them. Rule as the data show it, for most assays here: actives have a measured EC50 and inactives only a lower limit.
Columns and labels:
[1] = biological target: T1, Ubiquitin-conjugating enzyme E2 N (Homo sapiens, UniProt P61088); assay type: functional;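 also: Dose-response confirmation in a TR-FRET assay detecting UBC13-driven polyubiquitin chain formation, inhibition measured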
T1 sequence (P61088 whole entry): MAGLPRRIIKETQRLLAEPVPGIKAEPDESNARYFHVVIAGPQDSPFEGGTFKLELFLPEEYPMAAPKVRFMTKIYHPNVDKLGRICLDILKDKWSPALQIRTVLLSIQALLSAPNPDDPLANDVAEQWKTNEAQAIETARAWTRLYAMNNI

[2] = biological target: T2, Zinc finger protein mex-5 (Caenorhabditis elegans, UniProt Q9XUB2); experiment: MEX-5/TCR-2 RNA interaction inhibitors, dose response, biochemical, C. elegans, fluorescence polarization (AID 1960)
T2 sequence (Q9XUB2 whole entry): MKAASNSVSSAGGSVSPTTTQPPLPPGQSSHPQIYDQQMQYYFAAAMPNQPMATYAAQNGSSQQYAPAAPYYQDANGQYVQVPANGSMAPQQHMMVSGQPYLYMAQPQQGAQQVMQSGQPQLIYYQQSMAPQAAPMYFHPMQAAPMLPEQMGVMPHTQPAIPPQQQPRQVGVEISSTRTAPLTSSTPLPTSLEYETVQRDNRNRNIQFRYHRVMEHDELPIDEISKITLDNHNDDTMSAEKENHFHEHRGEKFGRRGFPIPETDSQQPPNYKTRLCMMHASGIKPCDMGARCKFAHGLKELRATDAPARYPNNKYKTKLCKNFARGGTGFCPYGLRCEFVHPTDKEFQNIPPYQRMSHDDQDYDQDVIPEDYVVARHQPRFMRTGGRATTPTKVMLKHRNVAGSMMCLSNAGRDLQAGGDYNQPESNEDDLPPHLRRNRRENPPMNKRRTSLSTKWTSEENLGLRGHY

[3] = biological target: T3, RNA-binding protein pos-1 (Caenorhabditis elegans, UniProt G5EF15); experiment: inhibitors of POS-1/mex-3 RNA binding, dose response, biochemical, fluorescence polarization (AID 1964);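 also: purified POS-1 fused to maltose binding protein made in E. coli; potency of compounds blocking POS-1 binding to fluorescent RNA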
T3 sequence (G5EF15 whole entry): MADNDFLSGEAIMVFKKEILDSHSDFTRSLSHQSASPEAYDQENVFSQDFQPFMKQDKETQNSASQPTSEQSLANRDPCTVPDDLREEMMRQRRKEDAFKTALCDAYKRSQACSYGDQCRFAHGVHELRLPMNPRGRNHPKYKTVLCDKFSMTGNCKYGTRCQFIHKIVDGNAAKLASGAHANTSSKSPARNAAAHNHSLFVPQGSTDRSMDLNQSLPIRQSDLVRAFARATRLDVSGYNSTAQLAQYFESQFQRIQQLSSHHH

Cytochrome P450 3A4 = Cytochrome P450 3A4 (Homo sapiens, UniProt P08684);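 also: CYP3A4 tested as one member of a cytochrome P450 panel screen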
Cytochrome P450 3A4, sequence (P08684 whole entry): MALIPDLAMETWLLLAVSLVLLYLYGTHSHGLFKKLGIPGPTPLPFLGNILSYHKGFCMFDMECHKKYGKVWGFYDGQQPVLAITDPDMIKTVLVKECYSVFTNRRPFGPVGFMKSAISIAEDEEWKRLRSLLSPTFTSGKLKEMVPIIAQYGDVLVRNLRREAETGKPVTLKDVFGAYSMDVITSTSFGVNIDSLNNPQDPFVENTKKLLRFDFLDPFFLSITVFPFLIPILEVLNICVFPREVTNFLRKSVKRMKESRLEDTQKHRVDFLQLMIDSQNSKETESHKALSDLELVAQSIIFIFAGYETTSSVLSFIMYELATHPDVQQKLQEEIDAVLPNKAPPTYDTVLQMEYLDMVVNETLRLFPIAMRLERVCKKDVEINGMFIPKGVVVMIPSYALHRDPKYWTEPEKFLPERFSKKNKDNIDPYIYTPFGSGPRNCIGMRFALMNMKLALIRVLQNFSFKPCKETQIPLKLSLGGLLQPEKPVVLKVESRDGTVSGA

Large T antigen = Large T antigen (Simian virus 40, UniProt P03070); assay type: functional, Betapolyomavirus macacae;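 also: Confirmatory-stage PubChem screen for compounds that inhibit SV40 T antigen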
Large T antigen, sequence (P03070 whole entry): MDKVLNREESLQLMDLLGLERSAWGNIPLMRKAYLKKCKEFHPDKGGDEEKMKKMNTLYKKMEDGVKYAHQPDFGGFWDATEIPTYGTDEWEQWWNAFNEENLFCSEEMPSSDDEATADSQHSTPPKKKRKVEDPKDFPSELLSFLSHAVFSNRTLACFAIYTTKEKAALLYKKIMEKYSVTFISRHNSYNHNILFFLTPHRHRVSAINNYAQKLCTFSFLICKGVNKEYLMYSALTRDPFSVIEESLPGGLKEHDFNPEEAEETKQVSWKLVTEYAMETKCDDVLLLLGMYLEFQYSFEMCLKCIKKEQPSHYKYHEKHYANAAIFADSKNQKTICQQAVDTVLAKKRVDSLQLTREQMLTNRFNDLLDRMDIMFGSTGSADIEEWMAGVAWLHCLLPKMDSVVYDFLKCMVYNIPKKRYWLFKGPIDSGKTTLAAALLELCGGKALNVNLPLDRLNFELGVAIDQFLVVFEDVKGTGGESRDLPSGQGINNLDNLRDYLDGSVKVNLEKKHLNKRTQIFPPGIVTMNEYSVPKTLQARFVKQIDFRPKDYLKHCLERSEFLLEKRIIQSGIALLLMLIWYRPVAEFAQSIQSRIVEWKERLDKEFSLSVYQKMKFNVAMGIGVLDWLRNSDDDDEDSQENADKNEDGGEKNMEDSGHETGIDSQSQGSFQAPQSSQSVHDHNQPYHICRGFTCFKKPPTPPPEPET

Leucine aminopeptidase = biological target: T4, Leucine aminopeptidase (Plasmodium falciparum 3D7, UniProt Q8IL11); experiment: P. falciparum M17LAP inhibitors, primary screen, biochemical, fluorogenic H-Leu-NHMec substrate, 1536-well (AID 1619); assay type: functional
T4 sequence (Q8IL11 whole entry): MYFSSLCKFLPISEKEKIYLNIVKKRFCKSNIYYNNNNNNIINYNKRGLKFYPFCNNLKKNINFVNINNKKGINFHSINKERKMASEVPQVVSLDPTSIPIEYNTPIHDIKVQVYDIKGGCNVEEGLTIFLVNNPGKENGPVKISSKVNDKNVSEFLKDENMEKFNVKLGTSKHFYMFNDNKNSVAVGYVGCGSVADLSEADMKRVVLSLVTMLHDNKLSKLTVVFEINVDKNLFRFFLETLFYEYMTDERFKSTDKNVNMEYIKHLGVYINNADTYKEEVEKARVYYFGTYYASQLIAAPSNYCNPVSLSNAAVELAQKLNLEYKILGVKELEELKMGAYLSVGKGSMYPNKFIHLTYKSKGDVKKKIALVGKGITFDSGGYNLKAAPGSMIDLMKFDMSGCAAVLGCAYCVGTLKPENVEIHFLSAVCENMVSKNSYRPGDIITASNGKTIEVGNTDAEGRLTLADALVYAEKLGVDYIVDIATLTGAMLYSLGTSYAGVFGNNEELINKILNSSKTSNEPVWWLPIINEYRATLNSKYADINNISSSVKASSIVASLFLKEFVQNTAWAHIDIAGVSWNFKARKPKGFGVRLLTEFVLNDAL

[4] = Luminescence Cell-Based Dose Response HTS to Identify Inhibitors of 5'UTR Stem-Loop Driven Prion Protein mRNA Translation in H4 Neuroglioblastoma Cells. [Related pubchem assays: 1827 (Project Summary), 1813 (Primary HTS)]; assay type: functional
[5] = growth suppression of PTEN-null colon cells, dose response, cell-based, HCT116 PTEN knockout (AID 1047); assay type: functional;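 also: HCT116 colon tumor cells with PTEN knocked out; cells exposed to compound for 60 hours before readout; potency for loss of cell viability measured by luminescence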
[6] = inhibitors of firefly luciferase expression or activity, dose response, H4 neuroglioma cells, luminescence (AID 1990); assay type: functional, cell-based
Streptokinase A = biological target: T5, Streptokinase A (Streptococcus pyogenes serotype M1, UniProt P10520); experiment: S. pyogenes streptokinase expression inhibitors, potency, dose response, plasminogen activation absorbance, OD405 (AID 1914); assay type: functional, Streptococcus pyogenes M1 GAS;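 also: secreted streptokinase activity via plasminogen activation per viability signal from cell pellet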
T5 sequence (P10520 whole entry): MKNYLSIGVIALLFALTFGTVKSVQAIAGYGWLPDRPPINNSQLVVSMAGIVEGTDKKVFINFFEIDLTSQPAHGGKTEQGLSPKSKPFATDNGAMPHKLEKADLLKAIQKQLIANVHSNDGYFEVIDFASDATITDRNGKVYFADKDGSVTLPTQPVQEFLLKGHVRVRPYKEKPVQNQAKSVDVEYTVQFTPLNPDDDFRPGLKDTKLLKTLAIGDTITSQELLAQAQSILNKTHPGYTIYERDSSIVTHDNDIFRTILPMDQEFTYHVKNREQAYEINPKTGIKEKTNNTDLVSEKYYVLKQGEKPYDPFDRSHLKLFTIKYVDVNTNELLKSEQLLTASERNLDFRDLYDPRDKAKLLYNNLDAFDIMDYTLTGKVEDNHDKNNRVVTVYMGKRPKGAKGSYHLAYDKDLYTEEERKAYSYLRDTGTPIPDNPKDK

[7] = growth suppression of beta-catenin-knockout colon cells, dose response, cell-based, HCT116, human colon tumor (AID 1045); assay type: functional;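 also: HCT116 colon tumor cells with beta catenin knocked out; cells exposed to compound for 60 hours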
[8] = Luminescence Cell-Based Dose Retest to Confirm Inhibitors of Cancer Stem Cells. [Related pubchem assays (depositor defined):AID2717, AID2721]; assay type: functional; settings: Homo sapiens
Streptococcus = experiment: Group A Streptococcus viability loss, dose response, counter-screen for streptokinase expression inhibitor project, luminescence, BacTiterGlo (AID 1915); assay type: functional, organism-based;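 also: potency for reduction of bacterial viability or growth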
Cytochrome P450 2C9 = Cytochrome P450 2C9 (Homo sapiens, UniProt P11712)
Cytochrome P450 2C9, sequence (P11712 whole entry): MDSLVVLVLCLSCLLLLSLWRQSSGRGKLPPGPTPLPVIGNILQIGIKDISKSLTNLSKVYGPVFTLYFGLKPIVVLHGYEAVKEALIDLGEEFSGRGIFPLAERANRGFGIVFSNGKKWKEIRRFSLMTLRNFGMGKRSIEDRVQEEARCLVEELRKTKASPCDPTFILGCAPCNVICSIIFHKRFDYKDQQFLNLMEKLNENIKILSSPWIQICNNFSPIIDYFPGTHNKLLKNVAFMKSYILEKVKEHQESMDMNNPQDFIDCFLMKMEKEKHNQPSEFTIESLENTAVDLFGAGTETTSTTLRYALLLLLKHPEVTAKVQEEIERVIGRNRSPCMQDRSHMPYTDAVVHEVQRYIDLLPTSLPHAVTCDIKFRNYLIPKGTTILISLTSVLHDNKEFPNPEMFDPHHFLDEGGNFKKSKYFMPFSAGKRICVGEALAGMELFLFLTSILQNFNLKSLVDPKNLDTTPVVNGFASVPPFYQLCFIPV

[9] = system: Streptococcus sp. 'group A'; experiment: growth inhibition of control SK(-) GAS strain, dose response, counter-screen for streptokinase expression inhibitor project, luminescence, kanamycin, BacTiterGlo, confirmation (AID 1900); assay type: functional, organism-based
[10] = inhibitors of SNCA 5'UTR-driven reporter translation, confirmation, H4 neuroglioma cells, luminescence (AID 1988); assay type: functional, cell-based
Cytochrome P450 1A2 = biological target: T6, Cytochrome P450 1A2 (Homo sapiens, UniProt P05177);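 also: PubChem cytochrome P450 panel assay, CYP1A2 panel member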
T6 sequence (P05177 whole entry): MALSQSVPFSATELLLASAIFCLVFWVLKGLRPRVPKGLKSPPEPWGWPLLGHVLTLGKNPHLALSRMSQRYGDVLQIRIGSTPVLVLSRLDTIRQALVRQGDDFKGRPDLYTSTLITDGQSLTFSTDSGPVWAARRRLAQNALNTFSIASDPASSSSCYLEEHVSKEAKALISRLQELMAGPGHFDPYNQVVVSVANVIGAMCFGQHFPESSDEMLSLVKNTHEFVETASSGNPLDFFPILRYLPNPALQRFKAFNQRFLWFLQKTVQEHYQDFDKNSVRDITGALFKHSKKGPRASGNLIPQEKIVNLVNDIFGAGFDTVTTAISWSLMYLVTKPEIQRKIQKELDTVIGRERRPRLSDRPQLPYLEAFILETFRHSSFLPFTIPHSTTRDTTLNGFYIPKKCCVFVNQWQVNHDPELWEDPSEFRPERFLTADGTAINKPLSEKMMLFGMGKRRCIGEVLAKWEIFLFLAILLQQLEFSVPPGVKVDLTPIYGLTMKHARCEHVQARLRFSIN

[11] = cytotoxicity toward NIH3T3 fibroblasts, dose response, counter-screen, cell-based, ATP luminescence, mouse fibroblasts (AID 2010); assay type: functional;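 also: cells exposed to compound for about 90 hours before reading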
[12] = inhibitors of intracellular T. cruzi replication, confirmation, NIH3T3 host cells, beta-gal luminescence (AID 2044); assay type: functional, cell-based;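 also: intracellular parasites grown in NIH/3T3 mouse fibroblasts as host cells; luminescent beta-galactosidase reporter signal from transgenic T. cruzi replicating inside host cells; inhibitors lower the luminescence signal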
[13] = biological target: T7, Heat shock factor protein 1 (Mus musculus, UniProt P38532); experiment: inhibition of MG132-induced HSE-luciferase signal, confirmation, cell-based, NIH3T3, luminescence, dose retest (AID 2382); assay type: functional;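 also: NIH3T3 fibroblasts with HSF1-driven luciferase reporter stressed by proteasome inhibitor MG132; luminescence from HSF1-driven luciferase expression after 8 hours of MG132 stress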
T7 sequence (P38532 whole entry): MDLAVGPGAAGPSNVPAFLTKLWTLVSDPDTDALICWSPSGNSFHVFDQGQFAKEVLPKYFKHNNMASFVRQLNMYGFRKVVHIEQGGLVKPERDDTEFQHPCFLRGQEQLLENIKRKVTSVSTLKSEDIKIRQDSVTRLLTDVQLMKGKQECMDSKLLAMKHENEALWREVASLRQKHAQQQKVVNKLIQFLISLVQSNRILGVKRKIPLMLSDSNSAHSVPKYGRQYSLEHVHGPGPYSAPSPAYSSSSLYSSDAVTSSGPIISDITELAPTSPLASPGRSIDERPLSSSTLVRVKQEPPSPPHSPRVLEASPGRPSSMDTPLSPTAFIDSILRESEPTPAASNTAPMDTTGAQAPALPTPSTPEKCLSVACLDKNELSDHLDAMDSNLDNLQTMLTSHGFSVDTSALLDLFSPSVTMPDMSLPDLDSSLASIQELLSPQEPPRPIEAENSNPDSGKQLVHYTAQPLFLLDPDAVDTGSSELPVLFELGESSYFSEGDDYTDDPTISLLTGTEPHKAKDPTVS

## CCC(=O)NC(c1cc(Cl)c2ccccc2c1O)C1CC1 (centres undefined)
[1]
  IC50: > 20 µM (inactive)

## CCNc1nn2ccccc2c1/C=C(\C#N)C(=O)OCC
[2]
  EC50: 68.8 µM (active)
[3]
  EC50: > 300 µM (not active)

## COc1ccc(C(=O)/C=C/Nc2ccc([N+](=O)[O-])cc2C)cc1OC
[2]
  EC50: > 150 µM (not active)
[3]
  EC50: 54.6 µM (active)

## O=Cc1c(-c2ccccc2)nc2ccccn12
[2]
  EC50: > 300 µM (not active)
[3]
  EC50: > 300 µM (not active)

## CN(C)c1ccnc(Oc2ccc(Cl)cc2)c1C#N
[2]
  EC50: > 300 µM (not active)
Cytochrome P450 3A4
  AC50: 3.16 µM (inconclusive)
[3]
  EC50: > 300 µM (not active)

## CN(C)c1ccc(N/C=C/C(=O)C(F)(F)F)cc1
Large T antigen
  IC50: 9.98 µM (active)

## COc1ccc(N2CCN(C(=O)CN(c3ccccc3)S(C)(=O)=O)CC2)cc1
Large T antigen
  IC50: > 100 µM (active)

## COc1ccc(Nc2cc(Nc3cc(OC)c(OC)c(OC)c3)ncn2)cc1
[1]
  IC50: > 20 µM (inactive)

## Cc1ccc2c(c1)c(/N=N/C(=N)S)c(O)n2Cc1ccccc1
[1]
  IC50: > 20 µM (inactive)

## COc1ccc(/C(C)=C2\SC(=S)N(CCC(=O)O)C2=O)cc1
Leucine aminopeptidase
  IC50: 30.1 µM (active)

## COc1cccc2c(=O)n(CC(=O)N3CCC(C)CC3)ccc12
Leucine aminopeptidase
  IC50: 42.5 µM (active)

## CCOC(=O)c1c(-c2ccccc2)csc1NC(=O)/C(C#N)=C/c1ccc(OC)c(OC)c1
[2]
  EC50: > 300 µM (not active)
[3]
  EC50: > 300 µM (not active)

## COC(=O)c1ccc(NCC(=O)N2CCCCCC2)cc1
Leucine aminopeptidase
  IC50: 40.3 µM (active)

## CCOc1ccc(C2OC34CCCCC3C(C#N)(C#N)C2(C#N)C(=N)O4)cc1OC (centres undefined)
[2]
  EC50: 10.5 µM (active)
[3]
  EC50: 11.8 µM (active)

## CCN(CC)c1ccc(C(=O)OCc2cc(=O)oc3cc(O)ccc23)cc1
[4]
  EC50: > 120 µM (not active)
[5]
  EC50: 7.3 µM (active)
[6]
  EC50: 9 µM (active)
Streptokinase A
  EC50: 128 µM (active)
[7]
  EC50: 5.62 µM (active)
[8]
  AC50: 4.72 µM (active)
Streptococcus
  EC50: > 150 µM (not active)
Cytochrome P450 2C9
  AC50: inconclusive
[9]
  EC50: 16.1 µM (active)
[10]
  EC50: 10.5 µM (active)
Cytochrome P450 1A2
  AC50: 2.24 µM (inconclusive)

## O=S(=O)(c1ccccc1)N1CCC(O)(CSc2ccc(Cl)cc2)CC1
[2]
  EC50: > 300 µM (not active)
[3]
  EC50: > 300 µM (not active)

## O=C(CN1C(=O)C2C3C=CC(C4CC34)C2C1=O)Nc1cnc2ccccc2c1 (centres undefined)
Leucine aminopeptidase
  IC50: 21.7 µM (active)

## O=C(NNc1ccccc1)C(=O)NNS(=O)(=O)c1ccc([N+](=O)[O-])cc1
[11]
  EC50: 9.05 µM (active)
[2]
  EC50: 5.08 µM (active)
[12]
  EC50: 0.87 µM (active)
[3]
  EC50: 21.1 µM (active)

## CCCCc1ccc(NC(=O)N[C@H](C(=O)O)C(C)CC)cc1 (some centres undefined)
Leucine aminopeptidase
  IC50: 6.31 µM (active)

## Brc1ccc(C2=CC(c3ccco3)n3ncnc3N2)cc1 (centres undefined)
[13]
  EC50: > 195 µM (not active)
[2]
  EC50: 18.1 µM (active)
[3]
  EC50: > 300 µM (inconclusive)

## CCN(CCCNC(=O)c1cc2c(-c3cccc(OC)c3)nn(C)c2s1)Cc1ccccc1
[1]
  IC50: > 20 µM (inactive)

Source: ChEMBL document CHEMBL1201862, “PubChem BioAssay data set” (2004)
